# Test results from patent US11325889B2, “Substituted 3-((3-aminophenyl)amino)piperidine-2,6-dione compounds, compositions thereof, and methods of treatment therewith” (Celgene Corporation, priority 2018, dated 2022).
# Biological target: T1, AR protein in VCaP cells (Homo sapiens, UniProt P10275)
# T1 construct: endogenous in cells; host or cells: VCaP cells
# T1 sequence (P10275 1-920): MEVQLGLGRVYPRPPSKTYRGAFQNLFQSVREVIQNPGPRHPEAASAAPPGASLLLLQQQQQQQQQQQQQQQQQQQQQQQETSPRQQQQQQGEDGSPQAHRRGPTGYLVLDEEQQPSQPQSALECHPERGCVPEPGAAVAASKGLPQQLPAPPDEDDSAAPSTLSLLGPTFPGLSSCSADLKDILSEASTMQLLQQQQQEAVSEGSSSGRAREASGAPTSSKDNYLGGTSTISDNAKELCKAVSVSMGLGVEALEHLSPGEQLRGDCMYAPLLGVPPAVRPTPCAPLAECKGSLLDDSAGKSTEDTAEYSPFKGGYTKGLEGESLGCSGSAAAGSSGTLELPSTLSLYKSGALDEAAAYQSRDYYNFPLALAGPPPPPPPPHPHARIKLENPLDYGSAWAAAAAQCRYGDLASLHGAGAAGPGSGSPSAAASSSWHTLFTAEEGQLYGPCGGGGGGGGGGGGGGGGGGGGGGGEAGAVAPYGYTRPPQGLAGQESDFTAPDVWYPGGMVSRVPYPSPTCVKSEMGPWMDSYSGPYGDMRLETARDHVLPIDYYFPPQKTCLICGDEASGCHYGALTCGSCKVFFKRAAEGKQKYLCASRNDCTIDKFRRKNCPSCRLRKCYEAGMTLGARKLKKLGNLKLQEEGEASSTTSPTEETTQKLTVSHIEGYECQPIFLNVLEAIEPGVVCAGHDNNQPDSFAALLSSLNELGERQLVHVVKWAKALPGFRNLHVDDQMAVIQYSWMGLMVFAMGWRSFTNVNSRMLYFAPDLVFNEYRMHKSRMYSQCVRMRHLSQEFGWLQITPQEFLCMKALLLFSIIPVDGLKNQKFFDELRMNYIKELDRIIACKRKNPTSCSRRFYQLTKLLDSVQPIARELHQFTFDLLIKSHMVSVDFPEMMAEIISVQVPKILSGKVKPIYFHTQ
# Assay: VCAP AR Degradation Assay (AR ELISA, 24 h)
# Format: cell-based
# Conditions: for Y (lowest measured AR level normalized to DMSO control): AR degradation efficiency; for DC50: concentration of compound when AR level = 50% of DMSO control, read-out: DC50
# Outline: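 VCaP cells in DMEM with 8% FBS exposed for 24 h at 37° C to a 10-point, 1:3 series (final top concentration […]; 0.1% DMSO control). Lysate AR measured by sandwich ELISA and normalized to DMSO as percent of control. DC50, EC50 and lowest AR level (Y) from four-parameter logistic fit.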
SMILES,Y (lowest measured AR level normalized to DMSO control),DC50
"CCc1cc(N2C(=S)N(c3cnc(C#N)c(C(F)(F)F)c3)C(=O)C2(C)C)ccc1OCCC1CCN([C@H](C)C(=O)Nc2cccc(N[C@@H]3CCC(=O)NC3=O)c2)CC1 [Cmpd 45, (R)-2-(4-(2-(4-(3-(6-cyano-5-(trifluoromethyl)pyridin-3-yl)-5,5-dimethyl-4-oxo-2-thioxoimidazolidin-1-yl)-2-ethylphenoxy)ethyl)piperidin-1-yl)-N-(3-((R)-2,6-dioxopiperidin-3-ylamino)phenyl)propanamide]",* (0<Y<=25%),< 100 nM
"CCc1cc(N2C(=S)N(c3cnc(C#N)c(C(F)(F)F)c3)C(=O)C2(C)C)ccc1OCCC1CCN([C@H](C)C(=O)Nc2cc(C#N)cc(NC3CCC(=O)NC3=O)c2)CC1 (stereo partly drawn) [Cmpd 38, (2R)-N-(3-cyano-5-(2,6-dioxopiperidin-3-ylamino)phenyl)-2-(4-(2-(4-(3-(6-cyano-5-(trifluoromethyl)pyridin-3-yl)-5,5-dimethyl-4-oxo-2-thioxoimidazolidin-1-yl)-2-ethylphenoxy)ethyl)piperidin-1-yl)propanamide]",** (25%<Y<=35%),< 100 nM
"CCc1cc(N2C(=S)N(c3ccc(C#N)c(C(F)(F)F)c3)C(=O)C2(C)C)ccc1OC1CCN(CC(=O)Nc2cc(Cl)cc(NC3CCC(=O)NC3=O)c2)CC1 (stereo not drawn) [Cmpd 49, N-(3-chloro-5-(2,6-dioxopiperidin-3-ylamino)phenyl)-2-(4-(4-(3-(4-cyano-3-(trifluoromethyl)phenyl)-5,5-dimethyl-4-oxo-2-thioxoimidazolidin-1-yl)-2-ethylphenoxy)piperidin-1-yl)acetamide]",** (25%<Y<=35%),100 to 500 nM
"CCc1cc(N2C(=S)N(c3cnc(C#N)c(C(F)(F)F)c3)C(=O)C23CCC3)ccc1OCCC1CCN([C@H](C)C(=O)Nc2cc(NC3CCC(=O)NC3=O)ccc2F)CC1 (stereo partly drawn) [Cmpd 86, (2R)-2-(4-(2-(4-(7-(6-cyano-5-(trifluoromethyl)pyridin-3-yl)-8-oxo-6-thioxo-5,7-diazaspiro[3.4]octan-5-yl)-2-ethylphenoxy)ethyl)piperidin-1-yl)-N-(5-(2,6-dioxopiperidin-3-ylamino)-2-fluorophenyl)propanamide]",* (0<Y<=25%),100 to 500 nM
"CCc1cc(N2C(=S)N(c3ccc(C#N)c(C(F)(F)F)c3)C(=O)C23CCC3)ccc1OCCC1CCN(CC(=O)Nc2cc(Cl)cc(NC3CCC(=O)NC3=O)c2)CC1 (stereo not drawn) [Cmpd 28, N-(3-chloro-5-(2,6-dioxopiperidin-3-ylamino)phenyl)-2-(4-(2-(4-(7-(4-cyano-3-(trifluoromethyl)phenyl)-8-oxo-6-thioxo-5,7-diazaspiro[3.4]octan-5-yl)-2-ethylphenoxy)ethyl)piperidin-1-yl)acetamide]",* (0<Y<=25%),100 to 500 nM
"CCc1cc(N2C(=S)N(c3cnc(C#N)c(C(F)(F)F)c3)C(=O)C2(C)C)ccc1OCCC1(C)CCN(CC(=O)Nc2cccc(NC3CCC(=O)NC3=O)c2)CC1 (stereo not drawn) [Cmpd 61, 2-(4-(2-(4-(3-(6-cyano-5-(trifluoromethyl)pyridin-3-yl)-5,5-dimethyl-4-oxo-2-thioxoimidazolidin-1-yl)-2-ethylphenoxy)ethyl)-4-methylpiperidin-1-yl)-N-(3-(2,6-dioxopiperidin-3-ylamino)phenyl)acetamide]",* (0<Y<=25%),< 100 nM
"CCc1cc(N2C(=S)N(c3cnc(C#N)c(C(F)(F)F)c3)C(=O)C2(C)C)ccc1OCCC1CCN(CC(=O)Nc2cc(NC3CCC(=O)NC3=O)ccc2Cl)CC1 (stereo not drawn) [Cmpd 14, N-(2-chloro-5-(2,6-dioxopiperidin-3-ylamino)phenyl)-2-(4-(2-(4-(3-(6-cyano-5-(trifluoromethyl)pyridin-3-yl)-5,5-dimethyl-4-oxo-2-thioxoimidazolidin-1-yl)-2-ethylphenoxy)ethyl)piperidin-1-yl)acetamide]",* (0<Y<=25%),100 to 500 nM
"CCc1cc(N2C(=S)N(c3ccc(C#N)c(C(F)(F)F)c3)C(=O)C2(C)C)ccc1OCCC1CCN([C@H](C)C(=O)Nc2cc(Cl)cc(NC3CCC(=O)NC3=O)c2)CC1 (stereo partly drawn) [Cmpd 21, (2R)-N-(3-chloro-5-(2,6-dioxopiperidin-3-ylamino)phenyl)-2-(4-(2-(4-(3-(4-cyano-3-(trifluoromethyl)phenyl)-5,5-dimethyl-4-oxo-2-thioxoimidazolidin-1-yl)-2-ethylphenoxy)ethyl)piperidin-1-yl)propanamide]",* (0<Y<=25%),100 to 500 nM
"CC1(C)C(=O)N(c2ccc(C#N)c(C(F)(F)F)c2)C(=S)N1c1ccc(OCCC2CCN(CC(=O)Nc3cc(Cl)cc(NC4CCC(=O)NC4=O)c3)CC2)c(Cl)c1 (stereo not drawn) [Cmpd 8, 2-(4-(2-(2-chloro-4-(3-(4-cyano-3-(trifluoromethyl)phenyl)-5,5-dimethyl-4-oxo-2-thioxoimidazolidin-1-yl)phenoxy)ethyl)piperidin-1-yl)-N-(3-chloro-5-(2,6-dioxopiperidin-3-ylamino)phenyl)acetamide]",* (0<Y<=25%),100 to 500 nM
"CCc1cc(N2C(=S)N(c3cnc(C#N)c(C(F)(F)F)c3)C(=O)C2(C)C)ccc1OCCC1CCN([C@@H](C)C(=O)Nc2cc(C#N)cc(NC3CCC(=O)NC3=O)c2)CC1 (stereo partly drawn) [Cmpd 37, (2S)-N-(3-cyano-5-(2,6-dioxopiperidin-3-ylamino)phenyl)-2-(4-(2-(4-(3-(6-cyano-5-(trifluoromethyl)pyridin-3-yl)-5,5-dimethyl-4-oxo-2-thioxoimidazolidin-1-yl)-2-ethylphenoxy)ethyl)piperidin-1-yl)propanamide]",* (0<Y<=25%),< 100 nM
"CCc1cc(N2C(=S)N(c3ccc(C#N)c(C(F)(F)F)c3)C(=O)C2(C)C)ccc1OCCC1(F)CCN(CC(=O)Nc2cccc(NC3CCC(=O)NC3=O)c2)CC1 (stereo not drawn) [Cmpd 88, 2-(4-(2-(4-(3-(4-cyano-3-(trifluoromethyl)phenyl)-5,5-dimethyl-4-oxo-2-thioxoimidazolidin-1-yl)-2-ethylphenoxy)ethyl)-4-fluoropiperidin-1-yl)-N-(3-(2,6-dioxopiperidin-3-ylamino)phenyl)acetamide]",* (0<Y<=25%),< 100 nM
"CC(F)(F)c1cc(N2C(=S)N(c3cnc(C#N)c(C(F)(F)F)c3)C(=O)C2(C)C)ccc1OCCC1CCN(CC(=O)Nc2cc(Cl)cc(NC3CCC(=O)NC3=O)c2)CC1 (stereo not drawn) [Cmpd 24, N-(3-chloro-5-(2,6-dioxopiperidin-3-ylamino)phenyl)-2-(4-(2-(4-(3-(6-cyano-5-(trifluoromethyl)pyridin-3-yl)-5,5-dimethyl-4-oxo-2-thioxoimidazolidin-1-yl)-2-(1,1-difluoroethyl)phenoxy)ethyl)piperidin-1-yl)acetamide]",* (0<Y<=25%),100 to 500 nM
"CCc1cc(N2C(=S)N(c3ccc(C#N)c(C(F)(F)F)c3)C(=O)C2(C)C)ccc1OCCC1CCN(CC(=O)Nc2cc(C#N)cc(NC3CCC(=O)NC3=O)c2)CC1 (stereo not drawn) [Cmpd 40, 2-(4-(2-(4-(3-(4-cyano-3-(trifluoromethyl)phenyl)-5,5-dimethyl-4-oxo-2-thioxoimidazolidin-1-yl)-2-ethylphenoxy)ethyl)piperidin-1-yl)-N-(3-cyano-5-(2,6-dioxopiperidin-3-ylamino)phenyl)acetamide]",** (25%<Y<=35%),100 to 500 nM
"CCc1cc(N2C(=S)N(c3ccc(C#N)c(C(F)(F)F)c3)C(=O)C23CCC3)ccc1OCCC1CCN([C@H](C)C(=O)Nc2cc(Cl)cc(NC3CCC(=O)NC3=O)c2)CC1 (stereo partly drawn) [Cmpd 31, (2R)-N-(3-chloro-5-(2,6-dioxopiperidin-3-ylamino)phenyl)-2-(4-(2-(4-(7-(4-cyano-3-(trifluoromethyl)phenyl)-8-oxo-6-thioxo-5,7-diazaspiro[3.4]octan-5-yl)-2-ethylphenoxy)ethyl)piperidin-1-yl)propanamide]",* (0<Y<=25%),100 to 500 nM
"CCc1cc(N2C(=S)N(c3cnc(C#N)c(C(F)(F)F)c3)C(=O)C2(C)C)ccc1OCCC1CCN(CC(=O)Nc2cc(F)cc(NC3CCC(=O)NC3=O)c2)CC1 (stereo not drawn) [Cmpd 16, 2-(4-(2-(4-(3-(6-cyano-5-(trifluoromethyl)pyridin-3-yl)-5,5-dimethyl-4-oxo-2-thioxoimidazolidin-1-yl)-2-ethylphenoxy)ethyl)piperidin-1-yl)-N-(3-(2,6-dioxopiperidin-3-ylamino)-5-fluorophenyl)acetamide]",* (0<Y<=25%),< 100 nM
